Measured values published in ChEMBL document CHEMBL1817594, “Multi-target strategy to address Alzheimer's disease: design, synthesis and biological evaluation of new tacrine-based dimers” (Eur J Med Chem, 2011).

Columns and labels:
[1] = biological target: T1, Beta-secretase 1 (Homo sapiens, UniProt P56817); test: Inhibition of BACE1 expressed in baculovirus assessed as inhibition of amyloid beta-42 production at 10 uM after 60 mins by spectrofluorometric assay
[2] = biological target: T2, Acetylcholinesterase (Homo sapiens, UniProt P22303); test: Mixed-type inhibition of human AChE assessed as hydrolysis of acetylthiocholine by Lineweaver-Burk plot analysis
T2 sequence (P22303 whole entry): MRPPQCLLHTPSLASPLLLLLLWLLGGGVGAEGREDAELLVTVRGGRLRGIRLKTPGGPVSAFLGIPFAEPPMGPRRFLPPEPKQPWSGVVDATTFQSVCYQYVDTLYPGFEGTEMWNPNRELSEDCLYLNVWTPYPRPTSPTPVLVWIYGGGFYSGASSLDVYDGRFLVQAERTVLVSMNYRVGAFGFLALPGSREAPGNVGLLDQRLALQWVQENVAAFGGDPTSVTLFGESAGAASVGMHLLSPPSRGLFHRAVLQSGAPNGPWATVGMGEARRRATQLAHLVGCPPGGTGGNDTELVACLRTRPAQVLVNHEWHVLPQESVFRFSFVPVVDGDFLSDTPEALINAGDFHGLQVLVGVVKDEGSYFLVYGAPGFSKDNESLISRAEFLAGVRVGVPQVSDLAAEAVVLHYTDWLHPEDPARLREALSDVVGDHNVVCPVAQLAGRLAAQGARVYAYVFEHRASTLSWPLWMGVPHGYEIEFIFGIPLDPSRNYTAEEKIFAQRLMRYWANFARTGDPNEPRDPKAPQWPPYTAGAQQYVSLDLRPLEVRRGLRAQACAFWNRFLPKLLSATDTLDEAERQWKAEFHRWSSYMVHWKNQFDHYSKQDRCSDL

[3] = biological target: T2, Acetylcholinesterase
Description: Inhibition of human serum recombinant AChE using acetylthiocholine iodide as substrate preincubated for 20 mins by Ellman's method

[4] = biological target: Cholinesterase (Homo sapiens, UniProt P06276)
Cholinesterase, sequence (P06276 whole entry): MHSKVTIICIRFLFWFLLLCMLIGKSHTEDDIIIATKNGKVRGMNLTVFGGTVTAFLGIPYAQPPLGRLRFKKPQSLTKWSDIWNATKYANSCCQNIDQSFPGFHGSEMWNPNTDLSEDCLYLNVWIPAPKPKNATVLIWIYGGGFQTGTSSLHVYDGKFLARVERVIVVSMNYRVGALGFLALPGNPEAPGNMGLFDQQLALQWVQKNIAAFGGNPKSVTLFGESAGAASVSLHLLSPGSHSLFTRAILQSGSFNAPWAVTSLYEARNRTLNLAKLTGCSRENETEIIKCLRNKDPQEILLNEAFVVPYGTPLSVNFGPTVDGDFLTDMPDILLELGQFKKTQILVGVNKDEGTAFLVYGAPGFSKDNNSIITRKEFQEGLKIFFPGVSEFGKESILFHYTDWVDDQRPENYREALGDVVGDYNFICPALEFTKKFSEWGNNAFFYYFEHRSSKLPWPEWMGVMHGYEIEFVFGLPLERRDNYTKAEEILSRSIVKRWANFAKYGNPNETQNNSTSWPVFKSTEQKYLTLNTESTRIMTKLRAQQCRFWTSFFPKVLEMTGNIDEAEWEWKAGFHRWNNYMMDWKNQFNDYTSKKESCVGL
Description: Inhibition of human serum recombinant BChE using butyrylthiocholine iodide as substrate preincubated for 20 mins by Ellman's method

[5] = biological target: T1, Beta-secretase 1
Description: Inhibition of BACE1 expressed in baculovirus assessed as inhibition of amyloid beta-42 production after 60 mins by spectrofluorometric assay

T1 sequence (P56817 whole entry): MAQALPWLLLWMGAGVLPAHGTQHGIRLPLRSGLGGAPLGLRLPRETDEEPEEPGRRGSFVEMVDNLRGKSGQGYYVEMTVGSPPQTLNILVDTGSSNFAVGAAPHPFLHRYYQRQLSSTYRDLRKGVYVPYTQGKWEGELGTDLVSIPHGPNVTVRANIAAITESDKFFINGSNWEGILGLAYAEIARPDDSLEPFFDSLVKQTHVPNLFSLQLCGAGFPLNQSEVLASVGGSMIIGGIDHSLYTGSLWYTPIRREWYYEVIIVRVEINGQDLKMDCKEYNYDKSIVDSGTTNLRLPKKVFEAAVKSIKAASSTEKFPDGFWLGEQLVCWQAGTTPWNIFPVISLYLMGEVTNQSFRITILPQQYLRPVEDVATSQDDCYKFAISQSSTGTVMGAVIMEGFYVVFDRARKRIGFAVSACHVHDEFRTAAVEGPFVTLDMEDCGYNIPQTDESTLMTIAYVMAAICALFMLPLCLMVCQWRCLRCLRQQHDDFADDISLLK

Structure (SMILES)	inhibition [1] [%]	Ki [2] [nM]	IC50 [3] [nM]	IC50 [4] [nM]	IC50 [5] [nM]
Clc1ccc2c(NCCCCCCCNc3c4c(nc5ccccc35)-c3ccccc3C4)c3c(nc2c1)CCCC3	27	1.01	1.05	63.7	1000
c1ccc2c(NCCCCCCCN3CCOCC3)c3c(nc2c1)CCCC3			44.5	90.5	
c1ccc2c(NCCCCCCN3CCOCC3)c3c(nc2c1)CCCC3			68.9	101	
Clc1ccc2c(NCCCCCCCOc3ccc(-c4cc5ccccc5o4)cc3)c3c(nc2c1)CCCC3			310	7280	
c1ccc2c(c1)Cc1c-2nc2ccccc2c1NCCCCCCCNc1c2c(nc3ccccc13)-c1ccccc1C2	27		455	28.6	400
c1ccc2c(NCCCCCCCCN3CCOCC3)c3c(nc2c1)CCCC3			16.5	42.8	
O=c1c2ccc(OCCCCCCCNc3c4c(nc5ccccc35)CCCC4)cc2oc2ncccc12			283	101	
Clc1ccc2c(NCCCCCCCNc3c4c(nc5cc(Cl)ccc35)-c3ccccc3C4)c3c(nc2c1)CCCC3			12.1	1660	
Clc1ccc2c(NCCCCCCCOc3cccc(-c4cc5ccccc5o4)c3)c3c(nc2c1)CCCC3			258	41.4	
c1ccc2c(NCCCCCCCCCN3CCOCC3)c3c(nc2c1)CCCC3			34	38.1	
c1ccc2c(c1)Cc1c-2nc2ccccc2c1NCCCCCCCNc1c2c(nc3ccccc13)CCCC2	27		13.9	24.8	
c1ccc2c(NCCCCCCCCCCN3CCOCC3)c3c(nc2c1)CCCC3			28.4	14.7	
